In one test the test system is OPCs. Put plainly: HD-DoE 12-factor model for stage 4 on OPCs, 6 days in culture. In kind it is cell-based, human. On the procedure:
To engineer the recipe of stage 4 of differentiation, 48 or 96 different combinations of effectors generated using Design-of-Experiments compression through D-optimality were robotically prepared. The effector combinations were prepared in a basal media and were subsequently added to the cells, which were treated with the stage 1, stage 2 and stage 3 differentiation media as described in the earlier examples to generate OPCs. […] Solutions within the tested space could then be explored to address desirability. […] Benarroch (2009) Neurology 72:1779-1785; Shi et al. (2019) Exp Ther Med, 18:1258-1266).

A further test concerns stage 2 early-OPCs. Put plainly: HD-DoE 12-factor model for stage 3 (version 1) on stage 2 early-OPCs. In kind it is cell-based, human. Conditions: for factor contribution: positive. On the procedure: In another model, the effects of Activin A and TTNPB along with LDN193189, MHY1485, PDGF-AA, AICAR, FGF2, CHIR99021, DBZ, MK2206, Purmorphamine and T3+T4 were tested on gene profile of differentiating cells. When this model was optimized for maximum expression of SOX10 at 54.7, we observed Activin A again had positive regulatory impact on its expression, with factor contribution of 4.7. Other positive factors included MK2206, with the highest factor contribution at 16.2, MHY1485 at 11.49, CHIR99021 at 9.6, DBZ at 9.3, FGF2 at 3.6 and PDGF-AA, with factor contribution less than 3 (FIG. 20).
In this model, we also investigated the conditions of expression of another important OPC gene, CSPG4 (Goldman and Kuypers (2015) Development 142:3983-95: van Tilborg et al. (2018) Glia 66:221-238).
Dynamic profile analysis was used to better assess the impact of the factors on our selected genes and find the combination set that can optimize their expression (FIG. 22). According to this analysis, even though Activin A has a positive effect on SOX10, it decreases level of PDGFRa and OLIG1. […] Moreover, SOX10 is one of the main transcription factors of oligodendrocytes, along with OLIG2 and NKX2-2, that has shown the potential to commit the stem cells to oligodendrocytes in reprogramming efforts (Wang et al. (2014) Proc Natl Acad Sci USA 111:E2885-94; Garciá-León et al. (2018) Stem Cell Reports 10:655-672). […] One of the main challenges of differentiating cells to oligodendrocyte fate is controlling the mixed population and increasing the purity of the culture by committing more cells to oligodendrocyte over neuronal identity. Therefore, DBZ was excluded from the final recipe.
At this point, we investigated the expression profile of a larger group of genes defining oligodendrocyte progenitor population at a later stage, including ID2, CNP and BCAN (Perlman et al. (2020). Glia 68:1291-1303; Goldman and Kuypers (2015) Development 142:3983-95). In this model, these genes were expressed at 1900, 660 and 44, respectively.

Test [1] deals with pre-OPCs. As to the kind of experiment: HD-DoE 12-factor model for stage 2 (version 1), 3 days on stage 1 pre-OPCs. To be noted: for factor contribution: optimized for maximum expression of OLIG2 at 1841.6. It is filed as cell-based, human. An excerpt: To engineer the recipe of stage 2 of differentiation, cells were first cultured in the stage 1 media described in Example 1 and then treated with combinations of 8 or 12 factors for 3 days and the gene expression of cells in each condition was modeled. At this point, due to short duration of culture (only six days in vitro), we decided to focus on maximal expression of OLIG2 and maintenance of high expression of NKX2-2, while initiating expression of SOX10, OLIG1 and PDGFRa, to guide the cells towards oligodendrocyte fate (Emery and Lu (2015). Cold Spring Harb Perspect Biol. 7:a020461; Perlman et al. (2020). Glia 68:1291-1303; Goldman and. Kuypers (2015) Development 142:3983-95).
In one 12-factor model, the individual and combinatorial impact of SUN 11602 an agonist for FGF signaling pathway, FGF2, Activin A an activator of one of the receptors of TGF-b superfamily, A 8301, an inhibitor of TGF-b pathway, CHIR99021 a WNT activator, AGN193109 a RA antagonist, MK2206 an AKT inhibitor, Purmorphamine an agonist of SHH signaling pathway, AZD3147 an antagonist of mTOR pathway, MHY1485 an agonist of mTOR pathway, SC79 an agonist of AKT pathway and G06983 an inhibitor of PKC pathway, were tested.
Dynamic profile analysis was used to assess the expression levels of other genes of interests, such as NKX2-2, OLIG1 and SOX10, while the model is maximized for OLIG2. Activin A and SUN 11602 were brought down to zero due to their very low factor contribution. We observed when the model is optimized, the expression level of NKX2-2 is at 3000, PDGFRa at 1000, OLIG1 at 80 and SOX10 at 15 (FIG. 12).

For test [2], the system named is pre-OPCs. Put plainly: HD-DoE 8-factor model for stage 2 (version 2) on pre-OPCs. It is filed as cell-based, human. Conditions: for factor contribution: positive. The procedure: To engineer the recipe of stage 2 of differentiation, cells were first cultured in the stage 1 media described in Example 1, then, 48 or 96 different combinations of effectors generated using Design-of-Experiments compression through D-optimality were robotically prepared. The effector combinations were prepared in a basal media and were subsequently added to the cells, which were then allowed to differentiate. Three days later RNA extraction was performed, and gene expression was obtained using quantitative PCR analysis. The data was normalized and modeled using partial least squares regression analysis to the effector design, resulting in the generation of gene-specific models, which after model tuning for maximal predictive power, provided explanation of the effectors ability to control the expression of individual genes, combinatorically, and individually. Solutions within the tested space could then be explored to address desirability.
At this point, due to short duration of culture (only six days in vitro) we decided to focus on maximal expression of OLIG2 and maintenance of high expression of NKX2-2, while initiating expression of SOX10, OLIG1 and PDGFRa, to guide the cells towards oligodendrocyte fate (Emery and Lu (2015). Cold Spring Harb Perspect Biol. 7:a020461; Perlman et al. (2020). Glia 68:1291-1303; Goldman and Kuypers (2015) Development 142:3983-95). In one 8-factor model, the individual and combinatorial impact of CHIR99021 (a WNT pathway agonist), AGN193109 (an RA pathway antagonist), FGF-2 (an FGFR agonist), Purmorphamine (an SHH pathway agonist), AICAR (an AMPK agonist), GW3965 (an LXR pathway agonist), GW590735 (a PPAR-a agonist) and AZD3147 (a mTOR antagonist) on further differentiation of cells were tested.

Test [3] relates to human pluripotent stem cells. Put plainly: HD-DoE #2: 13-factor model, differentiation toward anterior neuroectoderm, gene expression. It is filed as cell-based. An excerpt: To further enhance the conditions for oligodendrocyte differentiation from pluripotency, we performed an additional HD-DoE experiment. We obtained additional gene regulatory models that were used for preparation of a differentiation protocol. The basis of this was a 13-factor HD-DoE experiment with focus on initiation of differentiation of cells toward anterior neuroectoderm. In this model, we focused on expression of FEZF2 and OTX2.
As shown in the results summarized in FIG. 4, the model was optimized for highest expression of OTX2 at 12755.9. According to the model of high expression of OTX2, seven effectors had positive contribution including MK2206, PD0325901, CHIR99021, LDN193189, Go6983, PD173074 and BLU9931 with highest factor contribution of 22.2 for MK2206 and lowest factor contribution of 1.7 for PD173074 and BLU9931.
As shown in the results summarized in FIG. 5, the model was optimized for highest expression of FEZF2 at 4466. When the model was optimized for maximum expression level of FEZF2, three effectors including LDN193189 with factor contribution of 19.5, PD0325901 with factor contribution of 14.6 and MK2206 with factor contribution of 12.3 were common with previous condition and three new effectors including purmorphamine-500 nM, XAV939 and SC79 were introduced.
As shown in the results summarized in FIG. 6, to fine-tune the recipe and find the optimum combination of factors for high expression of both OTX2 and FEZF2, dynamic profiling analysis was done. […] Therefore, these two factors were added to the optimized culture recipe.

Test [4] concerns cells cultured in stage 1 and stage 2 differentiation media. Put plainly: HD-DoE 8-factor model for stage 3 (version 2). It is filed as cell-based, human. Conditions: positive. On the procedure:
To further differentiate the cells to an oligodendrocyte progenitor identity, additional HD-DoE experiments were performed on the cells that were cultured in stage 1 and stage 2 differentiation media. After 3 days, gene expression of cells in different combinatorial conditions were investigated. At this time, we focused on maximal expression of signature oligodendrocyte progenitor genes such as SOX10, OLIG1 and PDGFRa (Goldman and Kuypers (2015) Development 142:3983-95: Marques et al. (2016) Science 352:1326-1329). In one 8-factor model, individual and combinatorial effects of TTNPB (an RA agonist), CHIR99021, FGF-2, IGF-1, AGN193109, Purmorphamine, MHY1485 (a mTOR pathway agonist) and SC79 (an AKT pathway agonist) were tested to guide the cells toward a SOX10/PDGFRa positive population. […] CHIR99021 was also positive, with a factor contribution of 8.1 (FIG. 33).
Other positive factors were IGF-1, with a factor contribution of 11.2, CHIR99021, with a factor contribution of 8.5 and TTNPB, with a factor contribution below 1 (FIG. 34).
To confirm the impact of TTNPB, FGF-2 and IGF-1 on a bigger scale, we investigated the expression profile of a larger group of genes defining late oligodendrocyte progenitor population, such as ID2, CSPG4, FYN, SOX8, PLP1 and BCAN (Perlman et al. (2020). Glia 68:1291-1303; Goldman and Kuypers (2015) Development 142:3983-95; van Tilborg et al. (2018) Glia 66:221-238) and neuronal genes such as NEUROD1, NEUROG1 and NEUROG2 in presence of IGF-1, FGF-2 or TTNPB.

[5] abbreviates: optimized for maximum expression of OLIG1 at 454.7.
The mark [6] stands for this setting: optimized for maximum expression of OLIG2 at 3325.
[7] abbreviates: model optimized for highest expression of OTX2 at 12755.9, positive contribution.
The mark [8] stands for this setting: optimized for maximum expression of SOX10 at 54.7.
Setting [9] is: dynamic profile, model maximized for OLIG2.
[10] abbreviates: optimized for maximum expression of CSPG4 at 38.6.
Setting [11] is: dynamic profiling analysis, 13-factor model.

Values joined by “and” are separate entries in the source; they are usually repeats but may differ in a detail not shown here. Equal values may be shown once.

`NC(=O)c1ncn([C@@H]2O[C@H](CO)[C@@H](O)[C@H]2O)c1N` [AICAR]: the factor contribution in the test with OPCs (optimized for PLP1 at 3600, negative impact) was 12 and 11.8. For the same molecule, in the test with stage 2 early-OPCs (factor effect plots), the “effect on late OPC genes ID2, CNP and BCAN” value was “positively regulates”.

For `C[C@H]1COCCN1c1cc(C2(S(=O)(=O)C3CC3)CC2)nc(-c2ccc(NC(=S)NCCO)cc2)n1` [AZD3147], the factor contribution in the test on pre-OPCs [1] (positive regulatory effect) was 5.2; with pre-OPCs [2] (setting [5]), 26.7 and 26.76; in the test with pre-OPCs [2] (setting [6]), 30.2.

As for `C=CC(=O)Nc1cccc(C)c1Nc1ncc2cc(-c3c(Cl)c(OC)cc(OC)c3Cl)ccc2n1` [BLU9931], in test [3] (setting [7]), the factor contribution stood at 1.7.

With `Cc1c[nH]c(-c2cnc(NCCNc3ccc(C#N)cn3)nc2-c2ccc(Cl)cc2Cl)n1` [CHIR99021], the factor contribution in test [4] (optimized for SOX10 at 41.04) is 8.1; in test [4] (optimized for maximum expression of PDGFRa at 853.4), 8.5; in the test on stage 2 early-OPCs (setting [8]) it was 9.6; in the test on pre-OPCs [2] (setting [5]) it was 22.8; with pre-OPCs [2] (setting [6]), 17.96.

`C[C@H](NC(=O)Cc1cc(F)cc(F)c1)C(=O)N[C@@H]1C(=O)N(C)c2ccccc2-c2ccccc21` [DBZ]: the “effect on neuronal genes” value in the test with stage 2 early-OPCs (dynamic profile / factor effect plots) was “increases neuronal genes”. Also, in the test with stage 2 early-OPCs (setting [8]), the factor contribution stood at 9.3.

On to `C[C@H](NC(=O)Cc1cc(F)cc(F)c1)C(=O)N[C@@H]1C(=O)N(C)c2ccccc2-c2ccccc21` [GSI-XX], for which the “effect on expression of neuronal genes NeuroG1, NeuroG2 and NeuroD1” value with OPCs (dynamic profile analysis) is “positively regulates”. Besides, in the test on OPCs (optimized for CNP at 1790, positive), the factor contribution turned out to be 7.

As to `Cc1nc(-c2ccc(C(F)(F)F)cc2)sc1C(=O)NCc1ccc(OC(C)(C)C(=O)O)cc1` [GW590735], the “impact on SOX10 and NKX2-2 expression” value in the test on pre-OPCs [2] (setting [9]) is “negative impact”. The factor contribution with pre-OPCs [2] (setting [5]) is on record as 3.1; with pre-OPCs [2] (setting [6]), 5.4.

`COc1ccc2c(c1)c(C1=C(c3c[nH]c4ccccc34)C(=O)NC1=O)cn2CCCN(C)C` [Go6983]: in the test on pre-OPCs [1] (setting [9]), the “effect on expression of SOX10” value is “positively regulate” and the “impact on PDGFRA” value is reported as “significant negative impact”. In addition, in the test on pre-OPCs [1] (negative impact), the factor contribution is 10.2 and 10.22.

Regarding `NC1(c2ccc(-c3nc4ccn5c(=O)[nH]nc5c4cc3-c3ccccc3)cc2)CCC1` [MK2206], the factor contribution in test [3] (model optimized for highest expression of FEZF2 at 4466, positive) worked out at 12.3; in test [3] (setting [7]), 22.2; in the test on stage 2 early-OPCs (setting [10]), 5.2; with stage 2 early-OPCs (setting [8]), 16.2; in the test on pre-OPCs [1] (positive regulatory effect) it was 5.3.

In the case of `CCN(CC)CCCCNc1ncc2cc(-c3cc(OC)cc(OC)c3)c(NC(=O)NC(C)(C)C)nc2n1` [PD173074], in test [3] (setting [7]), the factor contribution was found to be 1.7.

On to `Oc1nc(-c2ccc(C(F)(F)F)cc2)nc2c1CSCC2` [XAV939], for which, in test [3] (setting [11]), the “effect on expression of FEZF2” value is given as “significant positive effects” and the “impact on expression level of OTX2” value is given as “no negative impact”.

For PDGF-AA: PDGFR pathway agonist, the factor contribution is on record as 2.9 in the test with stage 2 early-OPCs (setting [10]) and “less than 3” with stage 2 early-OPCs (setting [8]).

For the origin of these results see patent US12729368B2, “Methods and compositions for generating oligodendrocyte progenitor cells” (Trailhead Biosystems Inc., priority 2022, dated 2026).
